Reference: ChEMBL document CHEMBL1201862, “PubChem BioAssay data set” (2004)
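Following 48 hours of exposure in 96-well plates, responses at five concentrations were used to interpolate endpoints linearly. GI50 is the concentration that inhibits growth by half.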 Activity calls are given as the source filed them. Rule as the data show it: active = GI50 up to about 1.1 µM and inactive = higher.

Tests used:
Assay in all cases: NCI tumour cell line growth inhibition, 48 h
[1] = system: ACHN
[2] = system: CAKI-1
[3] = system: CCRF-CEM
[4] = system: COLO 205
[5] = system: HCC 2998
[6] = system: LOX IMVI
[7] = system: MOLT-4
[8] = system: Malme-3M
[9] = system: OVCAR-3
[10] = system: OVCAR-4
[11] = system: OVCAR-5
[12] = system: SF-268
[13] = system: SF-295
[14] = system: SN12C
[15] = system: SW-620
[16] = system: UO-31
[17] = system: A498

Measured: GI50

COc1cc(C=C2C(=O)NC(=O)NC2=O)cc(OC)c1OC
inactive: [1] > 100 µM | [2] > 100 µM | [3] > 100 µM | [4] > 100 µM | [5] > 100 µM | [6] > 100 µM | [7] > 100 µM | [8] > 100 µM | [9] > 100 µM | [10] > 100 µM | [11] > 100 µM | [12] > 100 µM | [13] > 100 µM | [14] > 100 µM | [15] > 100 µM | [16] > 100 µM

CNC(=O)CN(CC(N)=O)C(N)=O
inactive: [17] > 100 µM | [1] > 100 µM | [2] > 100 µM | [3] > 100 µM | [4] > 100 µM | [5] > 100 µM | [6] > 100 µM | [7] > 100 µM | [8] > 100 µM | [9] > 100 µM | [10] > 100 µM | [11] > 100 µM | [12] > 100 µM | [13] > 100 µM | [15] > 100 µM | [16] > 100 µM

CCOC(=O)C12CN(C34CC5CC(CC(C5)C3)C4)CC(C(=O)OCC)(C1=O)C(c1ccccc1)OC2c1ccccc1 (stereo not drawn)
inactive: [17] > 100 µM | [1] > 100 µM | [3] 44.3 µM | [4] > 100 µM | [5] > 100 µM | [6] 3.54 µM | [7] 35.6 µM | [8] > 100 µM | [9] > 100 µM | [10] 23 µM | [11] > 100 µM | [12] > 100 µM | [13] > 100 µM | [14] > 10 µM | [15] > 100 µM | [16] > 100 µM

CCOC(=O)C(C(CC(=O)OC)NC(=O)OCc1ccccc1)C1(C)OCCO1 (stereo not drawn)
inactive: [17] > 100 µM | [1] > 100 µM | [3] > 100 µM | [4] > 100 µM | [5] > 100 µM | [6] > 100 µM | [7] > 100 µM | [8] > 100 µM | [9] > 100 µM | [10] > 100 µM | [12] > 100 µM | [13] > 100 µM | [14] > 100 µM | [15] > 100 µM | [16] > 100 µM

CCCCN(CCCC)C(=Nc1ccccc1)N(CCCC)CCCC
inactive: [17] 9.62 µM | [1] 3.55 µM | [3] 3.89 µM | [4] 2.77 µM | [5] 4.32 µM | [6] 3.15 µM | [7] 2.72 µM | [8] 7.94 µM | [9] 3.3 µM | [11] 5.78 µM | [12] 11.2 µM | [13] 5.38 µM | [15] 3.54 µM | [16] 2.81 µM

CC(C)OCN/C(N)=N\C#N
inactive: [17] > 100 µM | [1] > 100 µM | [2] > 100 µM | [4] 29.1 µM | [5] > 100 µM | [6] 20.5 µM | [7] > 100 µM | [8] > 100 µM | [9] > 100 µM | [10] > 100 µM | [11] > 100 µM | [12] > 100 µM | [13] > 100 µM | [14] > 100 µM | [15] 17 µM | [16] > 100 µM

Cc1c(-c2coc(-c3ccc([N+](=O)[O-])cc3)n2)c(=O)n(-c2ccccc2)n1C
inactive: [17] > 100 µM | [1] > 100 µM | [3] > 100 µM | [4] > 100 µM | [5] > 100 µM | [6] > 100 µM | [7] > 100 µM | [8] > 100 µM | [9] > 100 µM | [10] > 100 µM | [11] > 100 µM | [12] > 100 µM | [13] > 100 µM | [14] > 100 µM | [16] > 100 µM

Nc1n/c(=N\c2ccccc2)ss1
inactive: [17] > 100 µM | [1] > 100 µM | [2] > 100 µM | [4] > 100 µM | [5] > 100 µM | [6] 51.4 µM | [7] > 100 µM | [8] > 100 µM | [9] > 100 µM | [10] > 100 µM | [11] > 100 µM | [12] > 100 µM | [13] > 100 µM | [14] > 100 µM | [15] > 100 µM | [16] > 100 µM

O=C(c1ccccc1)C1S(=O)(=O)OCCOS1(=O)=O
inactive: [2] > 100 µM | [3] > 100 µM | [4] > 100 µM | [5] > 100 µM | [6] > 100 µM | [7] > 10 µM | [8] > 100 µM | [9] > 100 µM | [10] > 100 µM | [12] > 100 µM | [13] > 100 µM | [14] > 100 µM | [15] > 100 µM | [16] > 100 µM
